This test relates to NF-κB p65 in LPS-stimulated RAW264.7 cells. The test is described as follows: NF-κB p65 nuclear translocation, Western blot of nuclear and cytoplasmic fractions. Type of test: cell-based, mouse. The following applies: 1 and 3 µg/mL, n = 3, p < 0.05. The procedure:
RAW264.7 cells were homogenized in a hypotonic lysis buffer and centrifuged at 142× g for 5 min at 4 °C. The resulting pellets and supernatants were used for the isolation of nuclear and cytosoplasmic fraction, respectively. The pellets were incubated on ice for 5 min with a nuclear isolation buffer and were spun at 142× g using Eppendorf centrifuge 5424 R at 4 °C for 5 min. The resulting pellets were incubated on ice for 30 min with 2% Triton nuclear isolation buffer and were spun at 12,448× g at 4 °C for 15 min. For the cytosolic fraction, the resulting supernatants in the hypotonic lysis buffer were transferred to a new 1.5 mL tube and spun at 15,401× g for 15 min at 4 °C. The resulting supernatants were centrifuged at 100,000× g at 4 °C for 60 min in an ultracentrifuge (TLA 100.3; Optima MAX-XP, Beckman Coulter, Inc., Brea, CA, USA). The proteins of nuclear and cytosolic fractions were separated on 8% SDS-PAGE gel and blotted onto polyvinylidene difluoride membranes. Equal amounts of 35 µg were analyzed by Western blotting. Briefly, the membranes were blocked with 5% fat-free dry milk and then incubated with the anti-NF-κB p65 polyclonal antibody (1:1000 dilution; Cell Signaling Technology), and anti-β-actin monoclonal antibodies (1:5000 dilution). […]
For orientation: A western blot detects proteins with antibodies after separation by electrophoresis.

As to `CC(C)=CCCC(C)=CCC(O)C(C)=CCCC1(C)C(CCCO)C(=C(C)C=O)CCC1(C)O` (stereo not shown) [Compound 2, iridobelamal A], the “nuclear translocation of p65 protein (Western blot)” value is reported as “inhibited”.

These data come from PMC8588536, “Iridal-Type Triterpenoids Displaying Human Neutrophil Elastase Inhibition and Anti-Inflammatory Effects from Belamcanda chinensis” (Molecules, 2021).
